In PMC2693246 (ACS chemical biology, 2009):
≈ marks a conversion by molar mass, not a printed value. Entries after “also recorded” stand apart in the source; their conditions may differ.

Columns and labels:
ftuFabI [1] = molecular target: T1, ftuFabI (Francisella tularensis subsp. tularensis, UniProt Q5NGQ3); assay: biochemical; format: biochemical
F. tularensis Schu4 = test system: F. tularensis Schu4; parameters: species or system mice; settings: mouse, in vivo; for %Survival: ip, 200 mg/kg
ftuFabI [2] = molecular target: T1, ftuFabI; format: biochemical
in vitro = settings: African green monkey
F. tularensis LVS = assay: microbe, parasite or virus in culture; format: cell-based, Francisella tularensis; settings: for MIC90: Francisella tularensis
ftuFabI [3] = molecular target: T1, ftuFabI; format: biochemical; remark: listed apart in the source
ecFabI = settings: cited from earlier work

T1 sequence (Q5NGQ3 1-260): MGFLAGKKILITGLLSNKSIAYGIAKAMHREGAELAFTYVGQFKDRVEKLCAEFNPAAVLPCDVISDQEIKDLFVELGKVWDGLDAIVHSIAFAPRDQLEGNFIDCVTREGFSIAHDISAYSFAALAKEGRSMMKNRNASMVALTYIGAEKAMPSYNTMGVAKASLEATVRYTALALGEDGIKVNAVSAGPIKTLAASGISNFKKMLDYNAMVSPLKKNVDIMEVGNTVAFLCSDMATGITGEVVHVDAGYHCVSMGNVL

Row | Structure (SMILES) | Ki (ftuFabI [1]) | k2 (ftuFabI [1]) | k−2 (ftuFabI [1]) | residence time (ftuFabI [1]) | Median Survival (F. tularensis Schu4) | efficacy in the 10-day animal model of infection (F. tularensis Schu4) | %Survival (F. tularensis Schu4) | Type of Inhibition (ftuFabI [2]) | CC50 (in vitro) | MIC90 (F. tularensis LVS) | also measured
1 | CCCc1ccc(Oc2ccccc2)c(O)c1 [Compound 9, 5-propyl-2-phenoxyphenol] | 375 ± 6 nM | 1.66 ± 0.01 min⁻¹ | 0.017 ± 0.002 min⁻¹ | 59 ± 2 min | 7.8 days | demonstrated efficacy | 39% | slow-onset inhibitors | 62000 ± 3000 ng/mL (≈ 272 µM) | 0.18 ± 0.14 ng/mL (≈ 0.000788 µM) | fold more potent (MIC90) than doxycycline (F. tularensis LVS): > 4,000 fold; fold more potent (MIC90) than gentamicin (F. tularensis LVS): more than 22,000 fold
2 | CNC(C)C1CCC(N)C(OC2C(N)CC(N)C(OC3OCC(C)(O)C(NC)C3O)C2O)O1 (stereo not shown) [Gentamicin, reference compound] |  |  |  |  |  |  |  |  |  | 4000 ng/mL (≈ 8.38 µM) | 
3 | Oc1cc(F)ccc1Oc1ccccc1 [Compound 3, 5-fluoro-2-phenoxyphenol] |  |  |  |  |  |  |  | not a slow-onset inhibitor; also recorded: Rapid equilibrium |  | 320 ± 20 ng/mL (≈ 1.57 µM) | fold decrease in binding affinity compared to 4 and 7 (ftuFabI [3]): 150 fold
4 | Oc1cc(Cl)ccc1Oc1ccc(Cl)cc1Cl [Compound 1, triclosan, reference compound] | 407 ± 48 nM | 0.56 ± 0.04 min⁻¹ | 0.025 ± 0.003 min⁻¹ | 40 ± 3 min | 7.8 days | demonstrated efficacy | 22% | uncompetitive inhibitor; also recorded: Slow-onset | 14000 ± 1000 ng/mL (≈ 48.4 µM) | 0.015 ng/mL (≈ 5.18e-05 µM) | fold tighter binding to E:NAD+ than to E:NADH (ftuFabI [2]): approximately 90,000 fold
5 | Oc1cc(Cl)ccc1Oc1ccccc1 [Compound 4, 5-chloro-2-phenoxyphenol] | 665 ± 70 nM | 0.11 ± 0.01 min⁻¹ | 0.033 ± 0.002 min⁻¹ | 30 ± 2 min | 6.8 days | demonstrated efficacy | 11% | Slow-onset | 60000 ± 14000 ng/mL (≈ 272 µM) | 1 ± 1 ng/mL (≈ 0.00453 µM) | fold higher affinity for ecFabI than triclosan (ecFabI): 7 fold; fold decrease in affinity for ftuFabI compared to triclosan (ftuFabI [2]): 37 fold
6 | Cc1ccc(Oc2ccccc2)c(O)c1 [Compound 7, 5-methyl-2-phenoxyphenol] |  |  |  |  |  |  |  | slow-onset inhibitors |  | 160 ± 70 ng/mL (≈ 0.799 µM) | 
7 | C[C@H]1c2cccc(O)c2C(=O)C2=C(O)[C@]3(O)C(=O)C(C(N)=O)=C(O)[C@@H](N(C)C)[C@@H]3[C@@H](O)[C@@H]21 [Doxycycline, reference compound] |  |  |  |  |  |  |  |  |  | 750 ± 350 ng/mL (≈ 1.69 µM) | 
8 | [H]/N=C(/N)N[C@H]1[C@H](O)[C@@H](O)[C@H](O[C@@H]2O[C@@H](C)[C@](O)(C=O)[C@H]2O[C@@H]2O[C@@H](CO)[C@H](O)[C@@H](O)[C@@H]2NC)[C@@H](N/C(N)=N\[H])[C@@H]1O [Streptomycin, reference compound] |  |  |  |  |  |  |  |  |  | 2000 ng/mL (≈ 3.44 µM) | 
